# pIC50: −log10 of the molar value.
# Tests used:
# [1] = system: A549 cells; assay: MTT cell proliferation (cytotoxicity) assay; assay type: cell-based, Human
# Protocol: The MTT assay was performed in the A549 cell lines to measure the cytotoxicity of dihydroaustrasulfone alcohol. All cell lines were seeded in 96-well plates with 2×10^4 cells/well in culture medium. Dihydroaustrasulfone alcohol was dissolved in PBS. The cells were treated with various concentrations of dihydroaustrasulfone alcohol as indicated in each figure. After 24 h, the number of viable cells was determined. Then, 5 mg/mL MTT was added to each well, and the plate was incubated at 37° C. for 3 h. The medium was removed, and 50 μL DMSO was added. The absorbance at 590 nm was measured for each well on an ELISA reader. The data are presented as the mean±SEM of three independent experiments.
# [2] = system: A549 cells; assay: Flow cytometry analysis of cell cycle and apoptosis (sub-G1); assay type: cell-based, Human; settings: 20 and 40 μg/mL, treatment for 24 h
# Protocol: A549 cells (2×10^5) were seeded into each well of a 12-well plate (TPP; Techno Plastic Products AG, Trasadingen, Switzerland) 24 h before being treated with various concentrations of dihydroaustrasulfone alcohol for 24 h. The cells were harvested with trypsin-EDTA, washed twice with 10 mL ice-cold PBS, fixed in 70% (v/v) ethanol, and kept at 4° C. The cells were then stained with propidium iodide (PI) [100 μg/mL PI, 0.2% (v/v) Nonidet P-40, and 1 mg/mL RNase A (DNase-free) in PBS lacking Ca^2+ and Mg^2+ at a 1:1:1 ratio by volume] and the DNA contents were analyzed with flow cytometry (Becton Dickinson, San Jose, Calif., USA). The intensity of PI fluorescence was linearly amplified, and both the area and width of the fluorescence pulse were measured. Ten thousand events were acquired, and the percentage of hypodiploid (apoptosis, sub-G1) events and the percentages of cells in the G0/G1, S and G2/M phases were determined using the DNA analysis software ModFitL T, version 2.0 (Verity Software, Topsham, Me., USA).
# [3] = system: A549 cells; assay: Wound healing assay; assay type: cell-based, Human; settings: 30 and 40 μg/mL, 18 h
# Protocol: For cell motility determination, A549 cells (2×10^5 cells/mL) were seeded in a 12-well tissue culture plate. After one day, the center of the cell monolayers was scraped with a sterile micropipette tip to create a straight zone (gap) of constant width. Then, each well was washed with PBS, and A549 cells were exposed to various concentrations of dihydroaustrasulfone alcohol (20, 30 or 40 μg/mL). Wound closure was monitored and photographed at 0 h and 18 h with a Nikon inverted microscope. To quantify the migrated cells, pictures of the initial wounded monolayers were compared with the corresponding pictures of cells at the end of the incubation. Artificial lines fitting the cutting edges were drawn on pictures of the original wounds and overlaid on the pictures of cultures after incubation. Cells that had migrated across the white lines were counted in six random fields from each triplicate treatment.
# [4] = system: A549 cells; assay: Trans-well cell migration assay; assay type: cell-based, Human; settings: 30 or 40 μg/mL
# Protocol: Tumor cell migration was assayed in trans-well chambers (Millipore) according to the method reported by Huang et al. (Lai, K. C.; Huang, A. C.; Hsu, S. C.; Kuo, C. L.; Yang, J. S.; Wu, S. H.; Chung, J. G. Benzyl isothiocyanate (BITC) inhibits migration and invasion of human colon cancer HT29 cells by inhibiting matrix metalloproteinase-2/-9 and urokinase plasminogen (uPA) through PKC and MAPK signaling pathway. J. Agric. Food Chem. 2010, 58, 2935-2942), with some modifications. Briefly, trans-well chambers with 6.5 mm polycarbonate filters of […] pore size were used. A549 cells (1×10^4 cells/mL) and 20, 30 or 40 μg/mL of dihydroaustrasulfone alcohol were suspended in F-12 (100 μL, serum free), placed in the upper trans-well chamber, and incubated for 24 h at 37° C. Then, the cells on the upper surface of the filter were completely wiped away with a cotton swab, and the lower surface of the filter was fixed in methanol, stained with 10% Giemsa solution, and counted under a microscope at a magnification of 200×. For each replicate, the tumor cells in 10 randomly selected fields were determined and the counts were averaged.
# [5] = system: MMP-2; assay: Gelatin zymography of A549 conditioned medium, MMP-2; assay type: cell-based, Human; settings: A549 cells, 20, 30, or 40 μg/mL, 24 h
# Protocol: (§1) Phytomedicine 2012, 19, 768-778). Briefly, the culture medium was electrophoresed (80 V for 120 min) in an 8% SDS-PAGE gel containing 0.1% gelatin. The gel was then washed at room temperature in a solution containing 2.5% (v/v) Triton X-100 with two changes and subsequently transferred to a reaction buffer for enzymatic reaction containing 1% NaN3; 10 mM CaCl2; and 40 mM Tris-HCl, pH 8.0; at 37° C. with shaking overnight (for 12-15 h). Finally, the MMP gel was stained for […] with 0.25% (w/v) Coomassie blue in 10% acetic acid (v/v) and 20% methanol (v/v) and destained in 10% acetic acid (v/v) and 20% methanol (v/v).
# [6] = system: MMP-9; assay: Gelatin zymography of A549 conditioned medium, MMP-9; assay type: cell-based, Human; settings: A549 cells, 20, 30, or 40 μg/mL, 24 h
# Protocol: as §1
# [7] = system: FAK; assay: Western blotting in A549 cells, FAK phosphorylation; assay type: cell-based, Human; settings: A549 cells, 20, 30, or 40 μg/mL, 24 h
# Protocol: (§2) A549 cells were plated in 10-cm dishes at a density of 3×10^6 cells per dish and incubated with 20, 30 or 40 μg/mL dihydroaustrasulfone alcohol in F-12 containing 1% (v/v) FBS for 24 h. The cells were collected, lysed in a lysis solution, and then incubated at 25° C. for 10 min. Total proteins were separated with SDS-PAGE before being transferred to PVDF membranes. The membranes were blocked with 5% (v/v) nonfat dry milk in PBS-Tween 20 for one hour and changed to an appropriate dilution of specific primary antibodies in TBS-T buffer overnight at 4° C. The blots were then incubated with horseradish peroxidase-linked secondary antibody for 1 h and then developed with the […] (ECL) reagent and exposed to Hyperfilm (Amersham, Arlington Height, Ill., USA). The data were analyzed by Gel-Logic 200 Imaging Systems, Molecular Imaging Software.
# [8] = system: ERK1/2; assay: Western blotting in A549 cells, ERK1/2 phosphorylation; assay type: cell-based, Human; settings: A549 cells, 20, 30, or 40 μg/mL, 24 h
# Protocol: as §2
# [9] = system: JNK1/2; assay: Western blotting in A549 cells, JNK1/2 phosphorylation; assay type: cell-based, Human; settings: A549 cells, 20, 30, or 40 μg/mL, 24 h
# Protocol: as §2
# [10] = system: AKT; assay: Western blotting in A549 cells, AKT phosphorylation; assay type: cell-based, Human; settings: A549 cells, 20, 30, or 40 μg/mL, 24 h
# Protocol: as §2
# [11] = system: PI3K; assay: Western blotting in A549 cells, PI3K protein level; assay type: cell-based, Human; settings: A549 cells, 20, 30, or 40 μg/mL, 24 h
# Protocol: as §2
# [12] = system: Lewis lung carcinoma (LLC); assay: Lewis lung carcinoma-bearing tumor model, tumor size; assay type: in vivo, C57BL/6J mice; settings: 8 or 16 mg/kg IP daily, 14-day treatment
# Protocol: (§3) The animal experiments were approved by the Institutional Animal Care and Use Committee of China Medical University (approval ID: 102-194-C). All animal care followed the institutional animal ethical guidelines of China Medical University. C57BL/6J male mice (average 25-28 g; 6 weeks old) were obtained from the Laboratory Animal Center, College of Medicine, National Taiwan University (Taipei, Taiwan). The C57BL/6J mice were kept on a 12 h light/dark cycle at 25° C. C57BL/6J mice were subcutaneously implanted with LLC cells (7×10^5 cells in 100 μL). The treatment of dihydroaustrasulfone alcohol start while all the tumors volume were larger than 100 mm^3. Eighteen mice were randomly assigned to three treatment groups (6 animals per group). Group I (untreated group) was subcutaneously grafted with LLC cells and given vehicle solvent. Group II was grafted with LLC cells and then treated with dihydroaustrasulfone alcohol (8 mg/kg). Group III was grafted with LLC cells and then treated with dihydroaustrasulfone alcohol (16 mg/kg). The dihydroaustrasulfone alcohol was diluted in normal saline and administered by IP. Body weight and tumor volume were measured every week after cell injection. The tumor width (W) and length (L) were measured every week by calipers, and the tumor volume was calculated as L×W2×0.52. The mice were treated daily for 2 weeks and then sacrificed.
# [13] = Lewis lung carcinoma-bearing tumor model, body weight; assay type: in vivo, C57BL/6J mice; settings: 8 or 16 mg/kg IP, days 8 or 14
# Protocol: as §3
smiles,measurement,setting,value
CC(=O)CCS(=O)(=O)CCO [dihydroaustrasulfone alcohol],cell viability,"[1]; 60, 80, and 100 μg/mL, 24 h",significantly suppressed
same,pIC50,"[1]; Homo sapiens, A549, 24 h, read-out: IC50, viability of A549 cells",3.56
same,apoptosis in the sub-G1 phase,[2],no effect
same,migration of A549 cells (wound healing),[3],significantly decreased
same,migration of A549 cells (trans-well),[4],significantly decreased
same,activity of MMP-2,[5],significantly inhibited
same,activity of MMP-9,[6],significantly inhibited
same,phosphorylation of FAK,[7],reduced phosphorylation of FAK
same,phosphorylation of ERK1/2,[8],inhibited
same,phosphorylation of JNK1/2,[9],inhibited
same,phosphorylation of AKT,[10],decrease in the phosphorylation
same,protein levels of PI3K,[11],inhibited the protein levels of PI3K in a dose-dependent manner
same,tumor size compared with the LLC control group,[12],significantly reduced
same,body weights compared with the LLC control group,[13],not significantly different
